Reference: patent US10710986B2, “PD-1/PD-L1 inhibitors” (Gilead Sciences, Inc., priority 2018, dated 2020)

Molecular target: PD-1/PD-L1 (Homo sapiens (Human), UniProt Q9NZQ7)
Assay: PD-1/PD-L1 biochemical protein-protein interaction assay (ALPHA)
Conditions: 0.3 nM His tagged PD-L1, 2.5 nM biotinylated Fc-PD-1, 60 minutes at 25° C., read-out: IC50 PD-L1-PD1

PD-1/PD-L1, sequence (Q9NZQ7 19-238): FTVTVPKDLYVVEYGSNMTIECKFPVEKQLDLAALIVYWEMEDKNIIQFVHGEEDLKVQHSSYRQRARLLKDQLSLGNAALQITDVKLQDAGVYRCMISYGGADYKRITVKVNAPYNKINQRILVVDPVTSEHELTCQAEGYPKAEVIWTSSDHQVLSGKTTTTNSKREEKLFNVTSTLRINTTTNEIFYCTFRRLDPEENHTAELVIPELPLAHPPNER

SMILES | IC50
COc1nc(-c2cccc(-c3cccc(-c4cnc(CN5CC[C@@H](C(=O)O)C5)c(OC)n4)c3Cl)c2Cl)cnc1CNC[C@@H]1CCC(=O)N1 [compound 552] | 0.144 nM
CNC(=O)NC1CN(Cc2ncc(-c3cccc(-c4cccc(-c5cnc(CN6CC(NC(=O)NC)C6)c(OC)n5)c4Cl)c3Cl)nc2OC)C1 [compound 554] | 0.099 nM
CNC(=O)C1CN(Cc2ncc(-c3cccc(-c4cccc(-c5cnc(CNC[C@@H]6CCC(=O)N6)c(OC)n5)c4Cl)c3Cl)nc2OC)C1 [compound 558] | 0.064 nM
COc1nc(-c2cccc(-c3cccc(-c4cnc(CN5CC(NS(C)(=O)=O)C5)c(OC)n4)c3Cl)c2Cl)cnc1CNC[C@@H]1CCC(=O)N1 [compound 559] | 0.12 nM
COc1nc(-c2cccc(-c3cccc(-c4cnc(CN[C@H]5C[C@](C)(O)C5)c(OC)n4)c3Cl)c2Cl)cnc1CN[C@H]1C[C@](C)(O)C1 [compound 561] | 0.164 nM
COc1nc(-c2cccc(-c3cccc(-c4cnc(CN[C@H]5C[C@](C)(O)C5)c(OC)n4)c3Cl)c2Cl)cnc1CNC[C@@H]1CCC(=O)N1 [compound 564] | 0.2 nM
COc1nc(-c2cccc(-c3cccc(-c4cnc(CNC[C@H]5C[C@H](OC)C5)c(OC)n4)c3Cl)c2Cl)cnc1CNC[C@@H]1CCC(=O)N1 [compound 565] | 0.43 nM
COc1nc(-c2cccc(-c3cccc(-c4cnc(CNC[C@H]5C[C@@](C)(O)C5)c(OC)n4)c3Cl)c2Cl)cnc1CNC[C@@H]1CCC(=O)N1 [compound 566] | 0.13 nM
COc1nc(-c2cccc(-c3cccc(-c4cnc(CNC[C@H]5C[C@](C)(O)C5)c(OC)n4)c3Cl)c2Cl)cnc1CNC[C@@H]1CCC(=O)N1 [compound 567] | 0.064 nM
COc1nc(-c2cccc(-c3cccc(-c4cnc(CNCCCN5CCCS5(=O)=O)c(OC)n4)c3Cl)c2Cl)cnc1CNCCCN1CCCS1(=O)=O [compound 570] | 0.414 nM
COc1nc(-c2cccc(-c3cccc(-c4cnc(CNC[C@@H]5CCC(=O)N5)c(OC)n4)c3Cl)c2Cl)cnc1CNCCN1CCCS1(=O)=O [compound 573] | 0.089 nM
COc1nc(-c2cccc(-c3cccc(-c4cnc(CNCCNS(C)(=O)=O)c(OC)n4)c3Cl)c2Cl)cnc1CNCCNS(C)(=O)=O [compound 575] | 0.064 nM
COc1nc(-c2cccc(-c3cccc(-c4cnc(CNCC5CCS(=O)(=O)N5)c(OC)n4)c3Cl)c2Cl)cnc1CNCC1CCS(=O)(=O)N1 (stereo not drawn) [compound 576] | 0.641 nM
CCNC(=O)CNCc1ncc(-c2cccc(-c3cccc(-c4cnc(CNC[C@@H]5CCC(=O)N5)c(OC)n4)c3Cl)c2Cl)nc1OC [compound 578] | 0.182 nM
COc1nc(-c2cccc(-c3cccc(-c4cnc(CN(C)C[C@@H]5CCC(=O)N5)c(OC)n4)c3Cl)c2Cl)cnc1CNC[C@@H]1CCC(=O)N1 [compound 580] | 0.359 nM
COc1nc(-c2cccc(-c3cccc(-c4cnc(CNC[C@@H]5CCC(=O)N5)c(OC)n4)c3Cl)c2Cl)cnc1CNCC(=O)NC(C)C [compound 581] | 0.201 nM

SMILES | IC50
COc1nc(-c2cccc(-c3cccc(-c4cnc(CN)c(OC)n4)c3Cl)c2Cl)ccc1C1=NCCN1 [compound 583] | 0.064 nM
COc1nc(-c2cccc(-c3cccc(-c4cnc(CN5CC[C@H](C(=O)O)C5)c(OC)n4)c3Cl)c2Cl)cnc1CN [compound 585] | 0.442 nM
COc1nc(-c2cccc(-c3cccc(-c4cnc(CN5CC[C@@H](O)C5)c(OC)n4)c3Cl)c2Cl)cnc1CN [compound 587] | 0.515 nM
COc1nc(-c2cccc(-c3cccc(-c4cnc(CNCC5(O)COC5)c(OC)n4)c3Cl)c2Cl)cnc1CNCC1(O)COC1 [compound 588] | 0.17 nM
COc1nc(-c2cccc(-c3cccc(-c4cnc(CNCC5(O)COC5)c(OC)n4)c3Cl)c2Cl)cnc1CNC[C@@H]1CCC(=O)N1 [compound 589] | 0.291 nM
COc1nc(-c2cccc(-c3cccc(-c4cnc(CN5CC6(CNC(=O)C6)C5)c(OC)n4)c3Cl)c2Cl)cnc1CN [compound 591] | 0.138 nM
COc1nc(-c2cccc(-c3cccc(-c4cnc(CNC5CC(C)(O)C5)c(OC)n4)c3Cl)c2Cl)cnc1CN (stereo not drawn) [compound 592] | 0.151 nM
COc1nc(-c2cccc(-c3cccc(-c4cnc(CN5CC6(CCC(=O)N6)C5)c(OC)n4)c3Cl)c2Cl)cnc1CN [compound 595] | 0.064 nM
COc1nc(-c2cccc(-c3cccc(-c4cnc(CN5CC(C)(O)C5)c(OC)n4)c3Cl)c2Cl)cnc1CN [compound 596] | 0.181 nM
COc1nc(-c2cccc(-c3cccc(-c4cnc(CN[C@@H](C)[C@H]5CCC(=O)N5)c(OC)n4)c3Cl)c2Cl)cnc1CNC[C@@H]1CCC(=O)N1 [compound 598] | 0.178 nM
COc1nc(-c2cccc(-c3cccc(-c4cnc(CN[C@H](C)[C@@H]5CCC(=O)N5)c(OC)n4)c3Cl)c2Cl)cnc1CNC[C@@H]1CCC(=O)N1 [compound 599] | 0.174 nM
COc1nc(-c2cccc(-c3cccc(-c4cnc(CN[C@H](C)[C@@H]5CCC(=O)N5)c(OC)n4)c3Cl)c2Cl)cnc1CN[C@H](C)[C@@H]1CCC(=O)N1 [compound 601] | 0.196 nM
COc1nc(-c2cccc(-c3cccc(-c4cnc5c(CN6CCC7(CCC(=O)N7)C6)cn(C)c5n4)c3Cl)c2Cl)cnc1CNC[C@H]1CCC(=O)N1 (stereo partly drawn) [compound 602] | 0.145 nM
COc1nc(-c2cccc(-c3cccc(-c4cnc5c(CN6CC7(CNC(=O)C7)C6)cn(C)c5n4)c3Cl)c2Cl)cnc1CNC[C@H]1CCC(=O)N1 [compound 605] | 0.113 nM
COc1nc(-c2cccc(-c3cccc(-c4cnc5c(CNC[C@@H]6CCC(=O)N6)cn(C)c5n4)c3Cl)c2Cl)cnc1CNC[C@H]1CCC(=O)N1 [compound 606] | 0.077 nM
COc1nc(-c2cccc(-c3cccc(-c4cnc5c(CN6CC7(CNC(=O)C7)C6)cn(C)c5n4)c3Cl)c2Cl)cnc1CN1CC2(CNC(=O)C2)C1 [compound 607] | 0.064 nM

Results, then the compound that gave them:

IC50 | SMILES
0.118 nM | COc1nc(-c2cccc(-c3cccc(-c4cnc(CN[C@@](C)(CO)C(=O)O)c(OC)n4)c3Cl)c2Cl)cnc1CNC[C@@H]1CCC(=O)N1 [compound 553]
0.345 nM | CNC(=O)C1CN(Cc2ncc(-c3cccc(-c4cccc(-c5cnc(CN6CC(C(=O)NC)C6)c(OC)n5)c4Cl)c3Cl)nc2OC)C1 [compound 555]
0.176 nM | COc1nc(-c2cccc(-c3cccc(-c4cnc(CN5CC(NS(C)(=O)=O)C5)c(OC)n4)c3Cl)c2Cl)cnc1CN1CC(NS(C)(=O)=O)C1 [compound 556]
0.09 nM | CNC(=O)NC1CN(Cc2ncc(-c3cccc(-c4cccc(-c5cnc(CNC[C@@H]6CCC(=O)N6)c(OC)n5)c4Cl)c3Cl)nc2OC)C1 [compound 557]
0.144 nM | COc1nc(-c2cccc(-c3cccc(-c4cnc(CNC5CS(=O)(=O)C5)c(OC)n4)c3Cl)c2Cl)cnc1CNC[C@@H]1CCC(=O)N1 [compound 560]
0.151 nM | COc1nc(-c2cccc(-c3cccc(-c4cnc(CNC[C@H]5C[C@@](C)(O)C5)c(OC)n4)c3Cl)c2Cl)cnc1CNC[C@H]1C[C@@](C)(O)C1 [compound 562]
0.431 nM | COc1nc(-c2cccc(-c3cccc(-c4cnc(CNC[C@H]5C[C@](C)(O)C5)c(OC)n4)c3Cl)c2Cl)cnc1CNC[C@H]1C[C@](C)(O)C1 [compound 563]
0.293 nM | COc1nc(-c2cccc(-c3cccc(-c4cnc(CNC[C@H]5CCS(=O)(=O)N5)c(OC)n4)c3Cl)c2Cl)cnc1CNC[C@H]1CCS(=O)(=O)N1 [compound 568]
0.59 nM | COc1nc(-c2cccc(-c3cccc(-c4cnc(CNC[C@@H]5CCS(=O)(=O)N5)c(OC)n4)c3Cl)c2Cl)cnc1CNC[C@@H]1CCS(=O)(=O)N1 [compound 569]
0.064 nM | COc1nc(-c2cccc(-c3cccc(-c4cnc(CN5CC(NS(N)(=O)=O)C5)c(OC)n4)c3Cl)c2Cl)cnc1CN1CC(NS(N)(=O)=O)C1 [compound 571]
0.064 nM | CNS(=O)(=O)CCNCc1ncc(-c2cccc(-c3cccc(-c4cnc(CNC[C@@H]5CCC(=O)N5)c(OC)n4)c3Cl)c2Cl)nc1OC [compound 572]
0.133 nM | COc1nc(-c2cccc(-c3cccc(-c4cnc(CN5CC(S(C)(=O)=O)C5)c(OC)n4)c3Cl)c2Cl)cnc1CNC[C@@H]1CCC(=O)N1 [compound 574]
0.064 nM | COc1nc(-c2cccc(-c3cccc(-c4cnc(CNC[C@@H]5CCC(=O)N5)c(OC)n4)c3Cl)c2Cl)cnc1CNCCCS(N)(=O)=O [compound 577]
0.782 nM | COc1nc(-c2cccc(-c3cccc(-c4cnc(CNC[C@H]5CCOC5)c(OC)n4)c3Cl)c2Cl)cnc1CNC[C@H]1CCOC1 [compound 579]
0.19 nM | COc1nc(-c2cccc(-c3cccc(-c4cnc(C5=NCCN5)c(OC)n4)c3Cl)c2Cl)ccc1CN [compound 582]
0.118 nM | COc1nc(-c2cccc(-c3cccc(-c4cnc(C5=NCCN5)c(OC)n4)c3Cl)c2Cl)cnc1CN [compound 584]
0.29 nM | COc1nc(-c2cccc(-c3cccc(-c4cnc(CN5CC[C@H](O)C5)c(OC)n4)c3Cl)c2Cl)cnc1CN [compound 586]
0.131 nM | COc1nc(-c2cccc(-c3cccc(-c4cnc(CN[C@H](C5CC5)[C@@H]5CCC(=O)N5)c(OC)n4)c3Cl)c2Cl)cnc1CN[C@H](C1CC1)[C@@H]1CCC(=O)N1 [compound 590]
0.12 nM | COc1nc(-c2cccc(-c3cccc(-c4cnc(CN5CC(O)C5)c(OC)n4)c3Cl)c2Cl)cnc1CN [compound 594]
0.129 nM | COc1nc(-c2cccc(-c3cccc(-c4cnc(CN5CC6(C5)CN(C(C)=O)C6)c(OC)n4)c3Cl)c2Cl)cnc1CN [compound 597]
0.064 nM | COc1nc(-c2cccc(-c3cccc(-c4cnc(CN[C@H]5C[C@@](O)(CO)C5)c(OC)n4)c3Cl)c2Cl)cnc1CNC[C@@H]1CCC(=O)N1 [compound 600]
0.073 nM | COc1nc(-c2cccc(-c3cccc(-c4cnc5c(CNC[C@H]6C[C@H](O)C6)cn(C)c5n4)c3Cl)c2Cl)cnc1CNC[C@H]1CCC(=O)N1 [compound 603]
0.064 nM | COc1nc(-c2cccc(-c3cccc(-c4cnc5c(CN6CC7(C6)CN(C(C)=O)C7)cn(C)c5n4)c3Cl)c2Cl)cnc1CNC[C@H]1CCC(=O)N1 [compound 604]
0.064 nM | CCn1cc(CN2CC3(C2)CN(C(C)=O)C3)c2ncc(-c3cccc(-c4cccc(-c5cnc(CN6CC7(C6)CN(C(C)=O)C7)c(OC)n5)c4Cl)c3Cl)nc21 [compound 608]
0.079 nM | CCn1cc(CN2CC3(CNC(=O)C3)C2)c2ncc(-c3cccc(-c4cccc(-c5cnc(CN6CC7(CNC(=O)C7)C6)c(OC)n5)c4Cl)c3Cl)nc21 [compound 609]
